Assay results reported in ChEMBL document CHEMBL4616592, “Design, synthesis and bio-evaluation of C-1 alkylated tetrahydro-β-carboline derivatives as novel antifungal lead compounds” (Bioorg Med Chem Lett, 2020).
In brackets after ≈: the same amount, converted by molar mass. Activity calls are given as the source filed them. No cut-off for these calls is given here.

Columns and labels:
[1] = system: Cryptococcus neoformans; assay: Antifungal activity against Cryptococcus neoformans assessed as fungal growth inhibition; type: functional
[2] = system: Nakaseomyces glabratus; assay: Antifungal activity against Candida glabrata assessed as fungal growth inhibition; type: functional
[3] = system: Candida tropicalis; assay: Antifungal activity against Candida tropicalis assessed as fungal growth inhibition; type: functional
[4] = system: Candida albicans; assay: Antifungal activity against Candida albicans assessed as fungal growth inhibition; type: functional
[5] = system: Candida parapsilosis; assay: Antifungal activity against Candida parapsilosis assessed as fungal growth inhibition; type: functional; settings: Lodderomyces parapsilosis
[6] = system: Kluyveromyces marxianus; assay: Antifungal activity against Candida kefyr assessed as fungal growth inhibition; type: functional
[7] = system: Pichia kudriavzevii; assay: Antifungal activity against Candida krusei assessed as fungal growth inhibition; type: functional
[8] = system: Nakaseomyces glabratus; assay: Fungicidal activity against Candida glabrata assessed as time taken to kill fungal colony at MIC by time kill kinetic assay; type: functional
[9] = system: Nakaseomyces glabratus; assay: Synergistic antifungal activity against Candida glabrata assessed as fold potentiation of AmphotericinB MIC for antifungal activity by checkerboard assay relative to control; type: functional
[10] = system: Nakaseomyces glabratus; assay: Synergistic antifungal activity against Candida glabrata assessed as fractional inhibitory concentration index in presence of ketoconazole by checkerboard assay; type: functional
[11] = system: Nakaseomyces glabratus; assay: Induction of morphological changes in Candida glabrata assessed as disintegration of cell surface at 9.7 uM by FE-SEM analysis; type: functional, organism-based
[12] = system: Nakaseomyces glabratus; assay: Induction of apoptosis in Candida glabrata assessed as early apoptotic cells at 9.70 uM incubated for 4 hrs by annexin V-FITC/propidium iodide staining based analysis (reference value: 3%); type: functional
[13] = Cytotoxicity against human HEK293 cells assessed as reduction in cell viability at 10 uM by MTT assay relative to control; type: cell-based; settings: read-out: INH
[14] = system: Nakaseomyces glabratus; assay: Induction of apoptosis in Candida glabrata assessed as late apoptotic cells at 9.70 uM incubated for 4 hrs by annexin V-FITC/propidium iodide staining based analysis (reference value: 0.1%); type: functional
[15] = system: Nakaseomyces glabratus; assay: Synergistic antifungal activity against Candida glabrata assessed as fold potentiation of ketoconazole MIC for antifungal activity by checkerboard assay relative to control; type: functional
[16] = system: Nakaseomyces glabratus; assay: Induction of apoptosis in Candida glabrata assessed as necrotic cells at 9.70 uM incubated for 4 hrs by annexin V-FITC/propidium iodide staining based analysis (reference value: 1.4%); type: functional
[17] = system: Nakaseomyces glabratus; assay: Induction of morphological changes in Candida glabrata assessed as increase in asymmetry at 9.7 uM by FE-SEM analysis; type: functional, organism-based
[18] = system: Nakaseomyces glabratus; assay: Synergistic antifungal activity against Candida glabrata assessed as fractional inhibitory concentration index in presence of amphotericin B by checkerboard assay; type: functional
[19] = Cytotoxicity against human HEK293 cells assessed as cell viability at 2.5 uM by MTT assay relative to control; type: cell-based; settings: read-out: Activity
[20] = system: Nakaseomyces glabratus; assay: Induction of morphological changes in Candida glabrata assessed as roughness of cell surface at 9.7 uM by FE-SEM analysis; type: functional, organism-based
[21] = system: Nakaseomyces glabratus; assay: Synergistic antifungal activity against Candida glabrata assessed as fold potentiation of fluconazole MIC for antifungal activity by checkerboard assay relative to control; type: functional
[22] = Cytotoxicity against human HEK293 cells assessed as cell viability at 20 to 50 uM by MTT assay relative to control; type: cell-based; settings: read-out: Activity
[23] = Cytotoxicity against human HeLa cells assessed as cell viability at 20 to 50 uM by MTT assay relative to control; type: cell-based; settings: read-out: Activity
[24] = Cytotoxicity against human HeLa cells assessed as reduction in cell viability at 10 uM by MTT assay relative to control; type: cell-based; settings: read-out: INH
[25] = system: Nakaseomyces glabratus; assay: Induction of apoptosis in Candida glabrata assessed as live cells at 9.70 uM incubated for 4 hrs by annexin V-FITC/propidium iodide staining based analysis (reference value: 95.5%); type: functional
[26] = system: Nakaseomyces glabratus; assay: Synergistic antifungal activity against Candida glabrata assessed as fractional inhibitory concentration index in presence of fluconazole by checkerboard assay; type: functional

## COC(=O)[C@@H]1Cc2c([nH]c3ccccc23)[C@H](c2cccnc2)N1
[1]
  MIC: > 250 µM
[2]
  MIC: > 250 µM
[3]
  MIC: > 250 µM
[4]
  MIC: > 250 µM
[5]
  MIC: > 250 µM
[6]
  MIC: > 250 µM
[7]
  MIC: > 250 µM

## C[C@@H]1[C@H](O)[C@@H](C)/C=C/C=C/C=C/C=C/C=C/C=C/C=C/[C@H](O[C@@H]2O[C@H](C)[C@@H](O)[C@H](N)[C@@H]2O)C[C@@H]2O[C@](O)(C[C@@H](O)C[C@@H](O)[C@H](O)CC[C@@H](O)C[C@@H](O)CC(=O)O[C@H]1C)C[C@H](O)[C@H]2C(=O)O [AMPHOTERICIN B]
[8]
  Time: 4 h
[1]
  MIC: 0.78 µM (≈ 0.721 µg/mL)
[2]
  MIC: 0.39 to 0.78 µM (≈ 0.36 to 0.721 µg/mL)
[3]
  MIC: 0.78 µM (≈ 0.721 µg/mL)
[4]
  MIC: 1.56 µM (≈ 1.44 µg/mL)
[5]
  MIC: 1.56 µM (≈ 1.44 µg/mL)
[6]
  MIC: 12.5 µM (≈ 11.6 µg/mL)
[7]
  MIC: 0.78 µM (≈ 0.721 µg/mL)

## CCCC[C@@H]1N[C@H](C(=O)OC)Cc2c1[nH]c1ccccc21
[1]
  MIC: > 250 µM
[2]
  MIC: > 250 µM
[3]
  MIC: > 250 µM
[4]
  MIC: > 250 µM
[5]
  MIC: > 250 µM
[6]
  MIC: > 250 µM
[7]
  MIC: > 250 µM

## CCCCCC[C@H]1N[C@H](C(=O)OC)Cc2c1[nH]c1ccccc21
[1]
  MIC: > 250 µM
[2]
  MIC: > 250 µM
[3]
  MIC: > 250 µM
[4]
  MIC: > 250 µM
[5]
  MIC: > 250 µM
[6]
  MIC: > 250 µM
[7]
  MIC: > 250 µM

## CCCCCCCCCCC[C@@H]1N[C@H](C(=O)OC)Cc2c1[nH]c1ccccc21
[1]
  MIC: > 250 µM
[2]
  MIC: > 250 µM
[3]
  MIC: > 250 µM
[4]
  MIC: > 250 µM
[5]
  MIC: > 250 µM
[6]
  MIC: > 250 µM
[7]
  MIC: > 250 µM

## COC(=O)[C@@H]1Cc2c([nH]c3ccccc23)[C@@H](c2cccnc2)N1
[1]
  MIC: > 250 µM
[2]
  MIC: > 250 µM
[3]
  MIC: > 250 µM
[4]
  MIC: > 250 µM
[5]
  MIC: > 250 µM
[6]
  MIC: > 250 µM
[7]
  MIC: > 250 µM

## COC(=O)[C@@H]1Cc2c([nH]c3ccccc23)[C@H](c2ccc3c(c2)OCO3)N1
[1]
  MIC: > 250 µM
[2]
  MIC: > 250 µM
[3]
  MIC: > 250 µM
[4]
  MIC: > 250 µM
[5]
  MIC: > 250 µM
[6]
  MIC: > 250 µM
[7]
  MIC: > 250 µM

## CCCCCCCC[C@@H]1N[C@H](C(=O)OC)Cc2c1[nH]c1ccccc21
[1]
  MIC: 39.1 µM (≈ 13.4 µg/mL)
[2]
  MIC: 62.5 µM (≈ 21.4 µg/mL)
[3]
  MIC: > 250 µM
[4]
  MIC: > 250 µM
[5]
  MIC: > 250 µM
[6]
  MIC: 62.5 µM (≈ 21.4 µg/mL)
[7]
  MIC: > 250 µM

## COC(=O)[C@@H]1Cc2c([nH]c3ccccc23)[C@@H](c2cccs2)N1
[1]
  MIC: > 250 µM
[2]
  MIC: > 250 µM
[3]
  MIC: > 250 µM
[4]
  MIC: > 250 µM
[5]
  MIC: > 250 µM
[6]
  MIC: > 250 µM
[7]
  MIC: > 250 µM

## COC(=O)[C@@H]1Cc2c([nH]c3ccccc23)[C@H](c2ccccc2)N1
[1]
  MIC: > 250 µM
[2]
  MIC: > 250 µM
[3]
  MIC: > 250 µM
[4]
  MIC: > 250 µM
[5]
  MIC: > 250 µM
[6]
  MIC: > 250 µM
[7]
  MIC: > 250 µM

## CC(=O)N1CCN(c2ccc(OCC3COC(Cn4ccnc4)(c4ccc(Cl)cc4Cl)O3)cc2)CC1 (stereo unspecified) [KETOCONAZOLE]
[2]
  MIC: 15.1 µM (≈ 8 µg/mL)

## OC(Cn1cncn1)(Cn1cncn1)c1ccc(F)cc1F [FLUCONAZOLE]
[2]
  MIC: 13.1 µM (≈ 4 µg/mL)

## CCCCCCCCCCC[C@H]1N[C@H](C(=O)OC)Cc2c1[nH]c1ccccc21
[1]
  MIC: > 250 µM
[2]
  MIC: > 250 µM
[3]
  MIC: > 250 µM
[4]
  MIC: > 250 µM
[5]
  MIC: > 250 µM
[6]
  MIC: > 250 µM
[7]
  MIC: > 250 µM

## COC(=O)[C@@H]1Cc2c([nH]c3ccccc23)[C@@H](c2ccc3c(c2)OCO3)N1
[1]
  MIC: > 250 µM
[2]
  MIC: > 250 µM
[3]
  MIC: > 250 µM
[4]
  MIC: > 250 µM
[5]
  MIC: > 250 µM
[6]
  MIC: > 250 µM
[7]
  MIC: > 250 µM

## CCCCCCCC[C@H]1N[C@H](C(=O)OC)Cc2c1[nH]c1ccccc21
[9]
  fold change (FC): 11
[8]
  Time: 12 h
[10]
  fractional inhibitory concentration index (FICI): 0.35 - 0.38
[1]
  MIC: 19.6 µM (≈ 6.7 µg/mL)
[11]
  Activity: Active
[12]
  Activity: 3.5%
[13]
  cytotoxicity at 10 µM: 10%
[2]
  MIC: 9.7 µM (≈ 3.32 µg/mL)
[14]
  Activity: 87.7%
[15]
  fold change (FC): 9
[16]
  Activity: 3.2%
[17]
  Activity: Active
[18]
  fractional inhibitory concentration index (FICI): 0.24
[19]
  viability at 2.5 µM: 95%
[20]
  Activity: Active
[21]
  fold change (FC): 4
[22]
  viability at up to 50 µM: 70 to 80%
[3]
  MIC: 19.6 µM (≈ 6.7 µg/mL)
[23]
  viability at up to 50 µM: 70 to 80%
[4]
  MIC: 39.1 µM (≈ 13.4 µg/mL)
[5]
  MIC: 39.1 µM (≈ 13.4 µg/mL)
[24]
  cytotoxicity at 10 µM: 14%
[25]
  Activity: 5.6%
[26]
  fractional inhibitory concentration index (FICI): 0.48
[6]
  MIC: 9.7 µM (≈ 3.32 µg/mL)
[7]
  MIC: 19.6 µM (≈ 6.7 µg/mL)

## CCCC[C@H]1N[C@H](C(=O)OC)Cc2c1[nH]c1ccccc21
[1]
  MIC: > 250 µM
[2]
  MIC: > 250 µM
[3]
  MIC: > 250 µM
[4]
  MIC: > 250 µM
[5]
  MIC: 156 µM (≈ 44.7 µg/mL)
[6]
  MIC: 156 µM (≈ 44.7 µg/mL)
[7]
  MIC: 156 µM (≈ 44.7 µg/mL)

## COC(=O)[C@@H]1Cc2c([nH]c3ccccc23)[C@H](c2cccs2)N1
[1]
  MIC: > 250 µM
[2]
  MIC: > 250 µM
[3]
  MIC: > 250 µM
[4]
  MIC: > 250 µM
[5]
  MIC: > 250 µM
[6]
  MIC: > 250 µM
[7]
  MIC: > 250 µM

## CCCCCC[C@@H]1N[C@H](C(=O)OC)Cc2c1[nH]c1ccccc21
[1]
  MIC: 156 µM (≈ 49.1 µg/mL)
[2]
  MIC: > 250 µM
[3]
  MIC: > 250 µM
[4]
  MIC: > 250 µM
[5]
  MIC: > 250 µM
[6]
  MIC: > 250 µM
[7]
  MIC: > 250 µM

## COC(=O)[C@@H]1Cc2c([nH]c3ccccc23)[C@@H](c2ccccc2)N1
[1]
  MIC: > 250 µM
[2]
  MIC: > 250 µM
[3]
  MIC: > 250 µM
[4]
  MIC: > 250 µM
[5]
  MIC: > 250 µM
[6]
  MIC: 125 µM (≈ 38.3 µg/mL)
[7]
  MIC: > 250 µM
